Assay results from US12225917B2 (priority 2017, dated 2025).
Read-outs that look alike come from different tables or passages of the source.

Experiments:
[1] = Feed palatability, feed and water consumption and bird productivity study (Example 2): feed intake, water intake, bodyweight, FCR; format: in vivo, broiler chickens
Source text: A follow-up study to determine the feed palatability, feed and water consumption and bird productivity following incorporation of a single formulation of IRP001 hemisulfate salt (unmasked) when offered to broiler chickens in-feed or in-water. The study explores the optimal treatment regime in terms of treatment start date.
Phase 1: On receipt, two hundred and seventy (270) day-old commercial broiler chickens were allocated sequentially as they are received into sixteen (16) individual floor pens, each of 16 or 17 birds, on Day 0.
Phase 2: On receipt, the ninety (90) day-old commercial broiler chickens were allocated sequentially as they are received into four (4) individual floor pens, each of 22 or 23 birds, on Day 22.
Feed intake, water intake, weight gain and mortality were used as outcome parameters.
Individual daily feed intake and individual daily water intake data by pen and then by treatment group were calculated for Phases 1 and 2 (and for the entire trial for the birds in Group/Pen 2, 15 and 16 that continue through both Phases) using figures for total feed and water provided each day to each pen divided by the number of birds in each pen. Where errors in weighing, feeding/watering or recording (or other unexplained losses of feed and water) had occurred means were adjusted by using the mean value for the same pen on the 1-2 days either side of the apparent error. Similarly, group mean bodyweights were calculated for Phase 1 using total weight/total no. birds for Day 0 and individual weights from Days 7, 14, 21, 28, 35 and 42. Total (individual) feed consumed was calculated per treatment and feed conversion ratios per treatment calculated using the expression: total (individual) feed/total (individual) weight gain. […]

[2] = test system: Clostridium Perfringens (type A strain EHE-NE36); details: NE challenged broilers; for median lesion scores: relative to nil-treatment; for small intestinal lesion scores: relative to nil treatment groups
Clostridium Difficile = assay: In vitro MIC and MBC against Clostridium difficile (Example 6); format: cell-based

For berberine hemisulfate [IRP001 sulfate], which bodyweight ([1]; Phase 1+2, Pen 2 untreated vs 15/16 treated in-water Day 6-42, pair-wise comparison p<0.05) is on record?
Its bodyweight is “no significant difference”.

And the bodyweight ([1]; Phase 1, unmasked treatment via drinking water (1.0 g per L) over varying periods)?
The bodyweight was “did not appear to affect”.

And the bodyweight ([1]; Phase 2, treatment in-feed (2.0 g per kg of feed))?
Its bodyweight is “did not appear to affect”.

And the median lesion scores ([2]; 0.1 g/L in-water)?
The median lesion scores was “no reduction in median lesion scores”.

And the “Mortalities prior to autopsy” value ([2]; 0.1 g/L in-water, versus nil-treatment)?
Its value is “not significantly different”.

What about the median lesion scores ([2]; 0.2 g/kg in-feed) of the same molecule?
The median lesion scores was “no reduction in median lesion scores”.

And the “Mortalities prior to autopsy” value ([2]; 0.2 g/kg in-feed, versus nil-treatment)?
Its value is “not significantly different”.

What about the “small intestinal lesion scores” value ([2]; 1.0 g/L in-water) of the same molecule?
Its value is “substantial reduction in small intestinal lesion scores”.

What about the “Mortalities prior to autopsy” value ([2]; 1.0 g/L in-water, relative to nil-treatment and low-dose groups) of the same molecule?
The value was “significant reduction in mortalities”.

What about the “small intestinal lesion scores” value ([2]; 2.0 g/kg in-feed) of the same molecule?
Its value is “substantial reduction in small intestinal lesion scores”.

And the “Mortalities prior to autopsy” value ([2]; 2.0 g/kg in-feed, relative to nil-treatment and low-dose groups)?
Its value is “significant reduction in mortalities”.

What about the “inhibition of growth at 62.5 μg/ml” value (Clostridium Perfringens; Necrotic Enteritis strain of C. perfringens, 62.5 μg/ml) of the same molecule?
Its value is “partial inhibition of growth”.

And the MIC (Clostridium Perfringens; Necrotic Enteritis strain of C. perfringens, test agent Berberine sulfate, purity 98.0%)?
Its MIC is 125 µg/mL.

Which MIC (Clostridium Difficile) does the source give for `CN[C@H](CC(C)C)C(=O)N[C@H]1C(=O)N[C@@H](CC(N)=O)C(=O)N[C@H]2C(=O)N[C@H]3C(=O)N[C@H](C(=O)N[C@H](C(=O)O)c4cc(O)cc(O)c4-c4cc3ccc4O)[C@H](O)c3ccc(c(Cl)c3)Oc3cc2cc(c3O[C@@H]2O[C@H](CO)[C@@H](O)[C@H](O)[C@H]2O[C@H]2C[C@](C)(N)[C@H](O)[C@H](C)O2)Oc2ccc(cc2Cl)[C@H]1O` [Vancomycin, reference compound] here?
Its MIC is “within the expected range”.

And the MIC (Clostridium Perfringens)?
Its MIC is “within the expected range”.
